Test results reported in paper PMC6270001, “Synthesis and Antiviral Activity of N-Phenylbenzamide Derivatives, a Novel Class of Enterovirus 71 Inhibitors” (Molecules, 2013).

What was measured:
Vero cells = experiment: Cytotoxicity determination in Vero cells monitored by cytopathic effect (CPE); assay type: cell-based; conditions: 48 h, Reed & Muench, concentration that inhibits 50% cellular growth, average ± SD, n=3
Method: Vero cells were purchased from the American Type Culture Collection and cultured in Minimum Essential Medium (MEM) supplemented with 10% Fetal Bovine Serum (FBS) and antibiotics (100 U/mL penicillin G, 100 μg/mL streptomycin). Enterovirus 71 (EV 71) strain SZ-98 was kindly provided by Dr. Qi Jin, Institute of Pathogen Biology, Chinese Academy of Medical Science and Peking Union Medical School. […] Enterovirus 71 (EV 71) strain JS-52-3 was kindly provided by Dr. Xiang-zhong Ye, Beijing Wantai Biological Pharmacy Enterprise Co., Ltd. All Enterovirus 71 strains were propagated in Vero cells.
(§1) All compounds were dissolved in DMSO at 20 mg/mL as a stock solution and further diluted in culture medium prior to use. The initial concentration in all cytotoxicity assay was 200 µg/mL, and inhibition assay for anti-EV71 experiments was from maximum non-toxic concentration, and proceeded serially 3-fold dilution with culture medium. All cytotoxicity and activity assay for each compound was repeated for three times, and the data was indicated as average ± SD.
The cytotoxicity of compounds in the presence of Vero cells was monitored by cytopathic effect (CPE). Vero cells (2.5 × 10^4/well) were plated into a 96-well plate. A total of 24 h later, the monolayer cells were incubated in the presence of various concentrations of test compounds. […] The median toxic concentration (TC50) was calculated by Reed & Muench analyses.

[1] = tested on: EV 71 strain SZ-98 (genotype C4); experiment: Anti EV 71 activity assay (CPE, Reed & Muench) in Vero cells, strain SZ-98; assay type: cell-based, Enterovirus 71; conditions: for IC50: EV 71 strain SZ-98, Vero cells, 100 TCID50, CPE, average ± SD, n=3; for SI SZ-98: selectivity index TC50/IC50, strain SZ-98, "-" stands for no antiviral selectivity
Method: (§2) The EV 71 was divided into three genotypes A, B and C based on nucleotide sequence comparisons, and genotypes B and C were subdivided into B1-B5 and C1-C5 [6, 10]. Genotype C is the most common genotype found in mainland China, especially the C4 subgenotype. Consequently, the intermediate compounds 1a, 1c and 1e, and the final products 2a–c, 3a–g, and 5a–f were evaluated for their anti-EV 71 activity in Vero cells against genotypes C4 (strains SZ-98 and JS-52-3), C2 (strain H) and A (strain BrCr). […] The IC50 values were calculated by the Reed and Muench method, and the cytotoxicity was monitored by the CPE method.
(§3) Vero cells were purchased from the American Type Culture Collection and cultured in Minimum Essential Medium (MEM) supplemented with 10% Fetal Bovine Serum (FBS) and antibiotics (100 U/mL penicillin G, 100 μg/mL streptomycin). Enterovirus 71 (EV 71) strain SZ-98 was kindly provided by Dr. Qi Jin, Institute of Pathogen Biology, Chinese Academy of Medical Science and Peking Union Medical School. Enterovirus 71 (EV 71) strain BrCr (VR-1775) was purchased from the American Type Culture Collection. Enterovirus 71 (EV 71) strain JS-52-3 was kindly provided by Dr. Xiang-zhong Ye, Beijing Wantai Biological Pharmacy Enterprise Co., Ltd. All Enterovirus 71 strains were propagated in Vero cells.
as §1
(§4) Confluent Vero cells grown in 96-well microplates were infected respectively with 100 median tissue culture infective dose (TCID50) EV 71. After 1 h adsorption at 37 °C, the monolayers were washed by PBS and incubated at 37 °C in the maintenance medium with or without different concentrations of test compounds.

[2] = tested on: EV 71 strain JS-52-3 (genotype C4); experiment: Anti EV 71 activity assay (CPE, Reed & Muench) in Vero cells, strain JS-52-3; assay type: cell-based, Enterovirus 71; conditions: for IC50: Enterovirus A, Vero, EV 71 strain JS-52-3, Vero cells, 100 TCID50, CPE, average ± SD, n=3; for SI JS-52-3: selectivity index TC50/IC50, strain JS-52-3, "-" stands for no antiviral selectivity
Method: as §2, §3, §1, §4

[3] = tested on: EV 71 strain H (genotype C2); experiment: Anti EV 71 activity assay (CPE, Reed & Muench) in Vero cells, strain H; assay type: cell-based, Enterovirus 71; conditions: for IC50: EV 71 strain H (C2 genotype), Vero cells, 100 TCID50, CPE, average ± SD, n=3; for SI H: selectivity index TC50/IC50, strain H, "-" stands for no antiviral selectivity
Method: as §2, §3, §1, §4

[4] = tested on: EV 71 strain BrCr (genotype A); experiment: Anti EV 71 activity assay (CPE, Reed & Muench) in Vero cells, strain BrCr; assay type: cell-based, Enterovirus 71; conditions: for IC50: Enterovirus A, Vero, EV 71 strain BrCr, Vero cells, 100 TCID50, CPE, average ± SD, n=3; for SI BrCr: selectivity index TC50/IC50, strain BrCr, "-" stands for no antiviral selectivity
Method: as §2, §3, §1, §4

Row | SMILES | IC50 ([1]; Enterovirus A, Vero) [µM] | IC50 [2] [µM] | IC50 ([3]; Enterovirus A, Vero) [µM] | IC50 [4] [µM] | melting point [°C] | IC50 [3] [µM] | TC50 (Vero cells) [µM] | IC50 [1] [µM] | SI SZ-98 [1] | SI JS-52-3 [2] | SI H [3] | SI BrCr [4]
1 | COc1ccc(C(=O)Nc2ccc(Cl)cc2)cc1OC(C)=O [Compound 5e, N-(4-Chlorophenyl)-4-methoxy-3-acetoxybenzamide] | ~15 | 32 ± 3.6 | 22 ± 4.7 | 32 ± 3.9 | 177 to 179 |  | 470 ± 22 | 13 ± 2.4 | 37 | 14 | 21 | 15
2 | CCCNc1cc(C(=O)Nc2ccccc2)ccc1OC [Compound 3e, 4-Methoxy-N-phenyl-3-(propylamino)benzamide] | > 78 | 34 ± 4.6 | ~15 | 45 | 121 to 123 | 20 ± 1.2 | 410 ± 22 |  |  | 12 | 20 | 9.0
3 | COc1ccc(C(=O)Nc2ccccc2)cc1NC(=O)C(C)F (stereo not drawn) [Compound 2a] | > 630 | 160 ± 5.7 | 18 ± 1.2 | > 630 |  |  |  |  |  | >3.9 | >35 | 
4 | COc1ccc(C(=O)Nc2ccc(Cl)cc2)cc1N(C)C [Compound 3b, N-(4-Chlorophenyl)-3-dimethylamino-4-methoxybenzamide] | 73 ± 8.6 | 42 ± 3.1 | 31 ± 4.3 | 50 ± 3.8 | 160 to 162 |  | 510 ± 38 |  | 7.0 | 12 | 16 | 10
5 | CNc1cc(C(=O)Nc2cc(OC)c(OC)c(OC)c2)ccc1OC [Compound 3c, 4-Methoxy-3-methylamino-N-(3,4,5-trimethoxyphenyl)benzamide] | 64 | 37 ± 1.9 | 37 ± 1.2 | 44 ± 1 | 147 to 148 |  | 280 ± 5.9 |  | 4.3 | 7.5 | 7.5 | 6.2
6 | CCC(=O)Oc1cc(C(=O)N(C)c2ccc(Cl)cc2)ccc1OC [Compound 5d, N-(4-Chlorophenyl)-N-methyl-4-methoxy-3-propionyloxybenzamide] | 190 ± 12 | 44 ± 3.7 | 65 | 53 ± 2.4 | 139 to 141 |  | 280 ± 21 |  | 1.4 | 6.2 | 4.3 | 5.2

The next lines start with results.

Row | IC50 ([1]; Enterovirus A, Vero) [µM] | IC50 [2] [µM] | IC50 ([3]; Enterovirus A, Vero) [µM] | IC50 [4] [µM] | melting point [°C] | IC50 [3] [µM] | SMILES | TC50 (Vero cells) [µM] | IC50 [1] [µM] | SI SZ-98 [1] | SI JS-52-3 [2] | SI H [3] | SI BrCr [4]
7 | 320 ± 32 | > 560 | 190 | 190 | 120 to 122 |  | COc1ccc(C(=O)Nc2cc(OC)c(OC)c(OC)c2)cc1N(C)C [Compound 3d, 3-Dimethylamino-4-methoxy-N-(3,4,5-trimethoxyphenyl)benzamide] | >560 |  | >1.7 |  | >3.0 | >3.0
8 | 38 ± 2.9 | 39 ± 1.9 | 22 ± 2.9 | > 67 | 130 to 132 |  | CCC(=O)Nc1cc(C(=O)Nc2ccc(Cl)cc2)ccc1OC [Compound 5b, N-(4-Chlorophenyl)-4-methoxy-3-propionamidobenzamide] | >600 |  | > 16 | >16 | >27 | 
9 | 110 ± 12 | 34 ± 2.8 | 41 ± 2.9 | 90 ± 9.5 | 142 to 143 |  | COc1cc(C(=O)Nc2ccccc2)ccc1NC(=O)C(C)F (stereo not drawn) [Compound 2c, 4-(2-Fluoropropanamido)-3-methoxy-N-phenylbenzamide] | >630 |  | >5.8 |  | >16 | >7.0
